# Assay results reported in patent US20260027096A1, “PHD INHIBITORS” (Oxford University Innovation Limited, priority 2023, published 2026).
# Legend:
# [1] = test system: murine iMLL-AF9 LSK cells in DOX-treated recipient mice; test: iMLL-AF9 LSK cell transplantation AML model; assay type: in vivo, mouse; conditions: vs vehicle
# Text: (A) 100,000 THP-1 cells were transplanted into NBSGW recipient mice. […] (B-C) Percentage of human CD45+CD33+ and human CD45+CD14+ cells in the BM and spleen, respectively (n=4-5). (D) 100,000 OCI-AML3 cells were transplanted into NBSGW recipient mice. […] (E) Percentage of human CD45+CD33+CD14+ cells in the liver, BM and PB, respectively (n=3-7). (F) 2,000 LSK cells from iMLL-AF9;Control mice were sorted and transplanted into irradiated recipient mice. […] (H) LDA in secondary recipients transplanted with indicated doses of CD45.2+BM cells from primary recipients (n=9-10 per dose). (I) Plot showing Poisson statistical analysis. […] LSC frequencies were calculated using the ELDA software 121. […]
# For primary transplantations of leukemic cells, 100,000 Meis1/Hoxa9-transduced c-Kit^+ cells or 2,000 iMLL-AF9 Lin Sca-1^+c-Kit^+ (LSK) cells were transplanted into lethally irradiated CD45.1^+/CD45.2^+ recipient mice (together with 200,000 unfractionated support CD45.1^+ wild-type BM cells). All recipient were culled upon reaching their humane endpoint as recorded in survival curves.
# For secondary transplantations of leukaemic cells, 50,000 cells harvested from primary recipients were transplanted into lethally irradiated CD45.1+/CD45.2+recipient mice (together with 200,000 unfractionated support CD45.1+wild-type BM cells). […] LSC frequency was calculated using ELDA software^121. […]
# [2] = test system: MV411 AML cells in NBSGW recipient mice; test: MV411 xenotransplantation in NBSGW mice, combination with Venetoclax; assay type: in vivo, mouse; conditions: 14 days treatment; IOX5 i.p. twice daily, Venetoclax o.g. once daily
# Procedure: 14 days following transplantation, recipient mice were treated with IOX5 (68, example 46), Venetoclax or vehicle control. Dosing regimen consisted of 2× daily via i.p. injection (IOX5 (68, example 46) or vehicle) and/or 1× daily via o.g. (Venetoclax or vehicle). […] (E-G) Percentage of human CD45+CD33+CD14+ cells in the BM, spleen and liver, respectively (n=5). (H) Survival curve of mice treated with IOX5 (68, example 46), Venetoclax, IOX5 (68, example 46)+Venetoclax or vehicle control (n=6-7). (I-J) Proliferation and Annexin-V+DAPI+analyses, respectively, of THP-1 cells treated with Ven, IOX5, FIH inhibitor (FIHi; DM-NOFD), IOX5 (68, example 46)+FIHi, IOX5 (68, example 46)+Ven, FIHi+Ven, IOX5 (68, example 46)+FIHi+Ven or vehicle control (n=6). Statistical significance represented as in (A-B). Data represent mean±SEM; *p<0.05; ** p<0.01; *** p<0.001; **** p<0.0001.
# 100,000 THP-1 cells, 100,000 OCI-AM3 cells or 100,000 MV411 cells (for combination experiments) were tail vein injected into non-irradiated 10-to 12-week-old mixed gender NBSGW mice and began drug treatment 14 days after transplantation. […] Mice were culled 5 weeks after transplantation.
# Mice in combination treatment experiments with Venetoclax (ABT-199) (MCE) were dosed once daily with 100 mg/kg via oral gavage (o.g.).
# Further to findings in Example 170, the efficacy of IOX5 (68, example 46)+Venetoclax combination in vivo was investigated (FIG. 38D). MV411 AML cells were engrafted (with MLL-AF4 and FLT3-ITD mutation) and the recipient mice were treated with a vehicle, IOX5 (68, example 46), Venetoclax, and a combination of IOX5 (68, example 46)+Venetoclax.
smiles,measurement,setting,value
O=C(NCC1CCC(C(F)(F)F)CC1)c1c[nH]c(-n2cccn2)cc1=O (stereo not shown) [IOX5],survival of leukaemic mice,[1]; i.p. twice daily for 14 days,significantly increased survival of leukaemic mice
same,LSC frequency (limiting dilution assay),[1]; secondary recipients,significantly decreased LSC frequency
same,leukaemic burden,[2],decreased leukaemic burden
same,survival of recipient mice,[2],extended survival of the recipient mice
